# Source: patent US10201542B2, “Formulations of pyrimidinedione derivative compounds” (AbbVie Inc., priority 2012, dated 2019)
# Test: Solution-based crystallization study, in situ UV/Vis probe
# Type: physicochemical
# Conditions: absence of polymer (control); pH 6.8 buffer, start about 80 μg/mL, FIG. 13-A
# Method: Several polymers (Kollidon VA64, HPMC E5, HPMC K3, PVP K30, and Vitamin E TPGS) were evaluated for their effectiveness in inhibiting or delaying precipitation of the free acid of Compound A through a solution-based mechanism. About 0.05 mL of a highly concentrated solution of Compound A monosodium salt monohydrate dissolved in dimethyl sulfoxide (16 mg/mL on a free acid equivalent weight basis) was added to 10 mL of pH 6.8 sodium phosphate buffer (50 mM phosphate with ionic strength adjusted to 0.155 M with sodium chloride) containing one of the polymers at one of […] different concentrations (0% (control), 0.001%, 0.01%, and 0.1% (weight polymer/volume buffer %)) to provide a supersaturated Compound A solution (about 80 μg/mL on a free acid equivalent weight basis). The supersaturated solution was continuously stirred at 300 rpm at ambient temperatures (about 26° C.) and the solution concentration was monitored for 30 minutes by an in situ UV/Vis dip probe (μDISS Profiler™, pION Inc, Woburn, Mass. 01801, USA) using an external standard.
smiles,measurement,value
"COc1c(-c2ccc3cc(NS(C)(=O)=O)ccc3c2)cc(-n2ccc(=O)[nH]c2=O)cc1C(C)(C)C [Compound A, N-(6-(3-tert-butyl-5-(2,4-dioxo-3,4-dihydropyrimidin-1(2H)-yl)-2-methoxyphenyl)naphthalen-2-yl)methanesulfonamide]",concentration of Compound A in the solution after decrease,about 20 μg/mL
